Source: ChEMBL document CHEMBL1135114, “Syntheses and bioactivities of novel carbamates combining platelet activating factor (PAF) receptor antagonist with thromboxane synthase inhibitor (TxSI)” (Bioorg Med Chem Lett, 2002)

How the values were obtained:
Mus musculus [1] = test: Ability to protect mice from the lethal effect of Platelet activating factor on po administration of compound; format: functional
Oryctolagus cuniculus = species on record: Oryctolagus cuniculus; test: The compound was tested for inhibition of Platelet activating factor (PAF) induced platelet aggregation in rabbit platelet rich plasma; format: functional
Rattus norvegicus [2] = test: Inhibition of serum TXB2 production in the rats after intravenous administration; format: functional
Rattus norvegicus [3] = test: Inhibition of serum TXB2 production in the rats after peroral administration; format: functional; details: po
Thromboxane-A synthase = target: T1, Thromboxane-A synthase (Homo sapiens, UniProt P24557); test: Thromboxane A2 synthase inhibitory activity was measured from inhibition of thromboxane B2 production in human platelet microsomes; design: species or system Microsome
T1 sequence (P24557 whole entry): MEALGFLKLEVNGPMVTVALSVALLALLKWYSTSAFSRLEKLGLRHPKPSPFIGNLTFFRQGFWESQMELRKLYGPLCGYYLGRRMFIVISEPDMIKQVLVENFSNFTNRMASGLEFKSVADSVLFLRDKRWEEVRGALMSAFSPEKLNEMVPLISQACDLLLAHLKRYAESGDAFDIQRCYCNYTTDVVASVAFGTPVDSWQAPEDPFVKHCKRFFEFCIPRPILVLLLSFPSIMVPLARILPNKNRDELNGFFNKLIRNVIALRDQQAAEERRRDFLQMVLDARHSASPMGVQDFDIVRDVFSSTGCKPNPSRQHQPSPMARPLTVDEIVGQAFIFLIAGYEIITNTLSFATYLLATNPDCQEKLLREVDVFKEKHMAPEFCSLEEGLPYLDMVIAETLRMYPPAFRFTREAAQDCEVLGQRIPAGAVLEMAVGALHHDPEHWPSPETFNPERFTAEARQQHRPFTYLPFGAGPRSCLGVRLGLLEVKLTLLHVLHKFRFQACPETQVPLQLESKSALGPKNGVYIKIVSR

Mus musculus [4] = test: Ability to protect mice from the lethal effect of Platelet activating factor on iv administration of compound; format: functional

Compound | ED50 (Mus musculus [1]) | IC50 (Oryctolagus cuniculus) | ED50 (Rattus norvegicus [2]) | ED50 (Rattus norvegicus [3]) | IC50 (Thromboxane-A synthase) | ED50 (Mus musculus [4])
CCOC(=O)CCCC/[N+]([O-])=C(/c1cccnc1)c1cccc(CN2CCc3c(sc4c3C(c3ccccc3Cl)=NCc3nnc(C)n3-4)C2)c1 | > 10 mg/kg | 190 nM | 0.1 mg/kg | > 10 mg/kg | 67 nM | 0.8 mg/kg
CCOC(=O)CCCC/[N+]([O-])=C(/c1cccnc1)c1cccc(COC(=O)N2CCc3c(sc4c3C(c3ccccc3Cl)=NC(C)c3nnc(C)n3-4)C2)c1 (stereo not drawn) | > 10 mg/kg | 41 nM | 0.1 mg/kg | > 10 mg/kg | 69 nM | 0.2 mg/kg
CCOC(=O)CCCC/[N+]([O-])=C(/c1cccnc1)c1cccc(COC(=O)N2CCc3c(sc4c3C(c3ccccc3Cl)=NCc3nnc(C)n3-4)C2)c1 | > 10 mg/kg | 139 nM | 0.1 mg/kg | > 10 mg/kg | 62 nM | 0.7 mg/kg
CCOC(=O)CCCC/[N+]([O-])=C(/c1cccnc1)c1cccc(CN2CCc3c(sc4c3C(c3ccccc3Cl)=NC(C)c3nnc(C)n3-4)C2)c1 (stereo not drawn) | > 10 mg/kg | 47 nM | 0.1 mg/kg | > 10 mg/kg | 60 nM | 0.2 mg/kg
O=C(O)CCCC/C=C(/c1ccccc1)c1cccnc1 [ISBOGREL] |  |  | 0.01 mg/kg | 0.05 mg/kg |  | 
O=C(O)/C=C/c1ccc(Cn2ccnc2)cc1 [OZAGREL] |  |  | 0.02 mg/kg | 0.1 mg/kg |  | 
